pIC50: −log10 of the molar value.

This assay has as its target T1, Steryl-sulfatase (Homo sapiens, UniProt P08842).
T1 sequence (P08842 whole entry): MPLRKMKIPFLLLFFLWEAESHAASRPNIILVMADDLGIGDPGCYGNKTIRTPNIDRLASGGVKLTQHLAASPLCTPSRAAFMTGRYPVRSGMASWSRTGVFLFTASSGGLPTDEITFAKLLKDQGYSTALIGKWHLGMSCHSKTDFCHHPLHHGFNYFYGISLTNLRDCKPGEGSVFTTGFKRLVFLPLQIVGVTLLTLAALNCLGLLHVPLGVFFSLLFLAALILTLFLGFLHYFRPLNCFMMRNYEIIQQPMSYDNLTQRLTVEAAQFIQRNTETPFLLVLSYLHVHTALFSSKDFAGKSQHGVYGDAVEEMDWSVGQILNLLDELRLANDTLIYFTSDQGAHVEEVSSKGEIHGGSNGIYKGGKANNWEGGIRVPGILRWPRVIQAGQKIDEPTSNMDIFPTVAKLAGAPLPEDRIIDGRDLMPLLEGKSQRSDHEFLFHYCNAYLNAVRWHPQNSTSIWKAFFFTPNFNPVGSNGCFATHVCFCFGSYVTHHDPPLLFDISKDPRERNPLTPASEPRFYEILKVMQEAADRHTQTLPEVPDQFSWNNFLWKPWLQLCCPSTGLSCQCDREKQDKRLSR
The assay can be described thus: Inhibition of human steroid sulfatase compared to EMATE.
Regarding `NS(=O)(=O)Oc1ccc(C(=O)c2ccccc2)cc1`, the negative logarithm of the IC50 (pIC50) – broadly, the IC50 on a negative log10 scale, so that one unit is a factor of ten – is 5.29.

In turn, `COc1cccc(C(=O)c2cccc(OS(N)(=O)=O)c2)c1` showed a pIC50 of 5.15.

`COc1ccc(C(=O)c2cccc(OS(N)(=O)=O)c2)cc1` gave a pIC50 of 5.16.

For `COc1cccc(C(=O)c2ccc(OS(N)(=O)=O)cc2)c1`, the pIC50 was 5.28.

Take `NS(=O)(=O)Oc1cccc(C(=O)c2cccc(O)c2)c1`: the pIC50 is 5.16.

With `NS(=O)(=O)Oc1cccc(C(=O)c2ccc(O)cc2)c1`, the negative logarithm of the IC50 (pIC50) was 5.30.

In turn, `NS(=O)(=O)Oc1cccc(C(=O)c2ccccc2)c1` showed a pIC50 of 5.24.

On to `NS(=O)(=O)Oc1cccc(C(=O)c2cccc(OS(N)(=O)=O)c2)c1`, for which the pIC50 is 5.49.

`NS(=O)(=O)Oc1ccc(C(=O)c2cccc(OS(N)(=O)=O)c2)cc1` had a pIC50 of 6.11.

As for `NS(=O)(=O)Oc1ccc(C(=O)c2ccccc2O)cc1`, the pIC50 was 5.34.

In turn, `COc1ccccc1C(=O)c1ccc(OS(N)(=O)=O)cc1` had a pIC50 of 5.32.

Regarding `NS(=O)(=O)Oc1ccc(C(=O)c2ccc(OS(N)(=O)=O)cc2)cc1`, the pIC50 is 6.72.

Take `C[C@]12CC[C@@H]3c4ccc(OS(N)(=O)=O)cc4CC[C@H]3[C@@H]1CCC2=O` [EMATE]: the pIC50 was 7.25.

The values are drawn from ChEMBL document CHEMBL1136026, “4,4'-Benzophenone-O,O'-disulfamate: a potent inhibitor of steroid sulfatase” (Bioorg Med Chem Lett, 2002).
